Data taken from US6369297B1, “Inducible one-component plant gene tagging” (Academia Sinica, priority 2000, dated 2002).

Legend:
[1] = tested on: INAc transposition (PR-1a::TPase); assay: SA induction of INAc transposition in transgenic tobacco calli (luciferase activity of regenerated shoots); assay type: cell-based; conditions: for shoots exhibiting high luciferase activity: line IK; for shoots with luciferase activity (transposition frequency): lines IA, IC, IM1, IN1, IP1, IR1; for shoots exhibiting luciferase activity out of shoots from SA-treated calli: 0.1 and 1 mM SA pooled
Procedure: (§1) Assay of reporter gene activities. Luciferase activity was determined as described in Howell et al., “Use of the firefly luciferase gene as a reporter of gene expression in plants,” In: Gelvin et al., eds, Plant Molecular Biology Manual, pp. B8/1-B8/11, Kluwer Academic Publishers, Dordrecht, 1989; using a Lumat LB 9501 luminometer (Berthold, Munich, Germany). For imaging of luciferase activity, hygromycin-resistant (Hyg^R) seedlings were sprayed with luciferin, incubated in the dark for 5 minutes, and then placed under a charge-coupled device camera (ChemiImager 4000; Alpha Innotech, San Leandro, Calif.) for detection of luminescence. Image acquisition and processing were performed with AlphaEase software (Alpha Innotech). Exposure time was 30 minutes.
Induction of INAc transposition. […] The effect of SA on INAc transposition was determined by incubating Hyg^R calli with a diameter of 0.5 to 1 cm for various times on callus regeneration medium containing either 0.1 or 1 mM SA. The calli for the transformed lines IA, IC, and IK were directly divided from the primary regenerated calli, which were large and generated many primary transformed shoots. For transformed lines IF, IM, IN, IP, and IR, the calli were obtained from the primary transformants IF1, IM1, IN1, IP1, and IR1. Leaf disks were excised and incubated on callus regeneration medium to yield enough calli for induction experiments. The calli were treated with 0.1 mM SA for 60 days, or were incubated with 1 mM SA for 10 days and then transferred to normal callus regeneration medium for an additional 50 days. As a control, calli were incubated on normal callus regeneration medium for 60 days. Luciferase activity was measured in the shoots that developed from the calli during incubation and was expressed as −, +, ++, or +++ as described in Table 2.
The numerical values in Table 2 indicate the number of LUC^+ shoots that were regenerated from SA-treated tobacco calli. Symbols denoting the amount of luciferase activity (RLU per microgram of total protein) are as follows: (−) <50 (with no typical luciferase activity kinetics); (+) 50 to 500 RLU; (++) 500 to 5000 RLU; and (+++)>5000 RLU.

[2] = tested on: INAc transposition (PR-1a::TPase); assay: SA induction of INAc transposition in flowering tissue; LUC assay of HygR R1 progeny; assay type: in vivo, tobacco
Procedure: as §1
Analysis of SA-induced transposition in R1 progeny of transformed tobacco plants. An important feature of an inducible transposable element is its susceptibility to induced transposition in germinal tissue. Such susceptibility markedly increases the probability of success of transposon tagging in the isolation of important plant genes. To determine the effectiveness of INAc for gene tagging, the induction of transposition in germ-line tissue was studied using 14 transformed tobacco plants from lines IA, IM, IN, and IP. […] The flowering tissues of plants were sprayed with SA at concentrations of 50, 5, or 1 mM, and after 2 hours these tissues were watered to remove SA. […] The R1 progeny was analyzed by comparing the germination frequency apparent on normal germination medium with that observed on germination medium containing hygromycin B, as summarized in Table 3.
The proportion of LUC^+ seedlings after selection with hygromycin B was next determined. […] A large proportion of LUC^+ seedlings was apparent for transformed plants treated with SA (Table 3).
With this approach, the efficiency of INAc transposition was determined to be 0.2, 0.7, and 3.1% for transformed plants treated with 1, 5, and 50 mM SA, respectively, as shown in Table 4.

[3] = tested on: transformed tobacco plants; assay: Germination frequency of R1 progeny and fruiting of SA-treated transformed tobacco plants; assay type: in vivo
Procedure: An important feature of an inducible transposable element is its susceptibility to induced transposition in germinal tissue. Such susceptibility markedly increases the probability of success of transposon tagging in the isolation of important plant genes. To determine the effectiveness of INAc for gene tagging, the induction of transposition in germ-line tissue was studied using 14 transformed tobacco plants from lines IA, IM, IN, and IP. […] The R1 progeny was analyzed by comparing the germination frequency apparent on normal germination medium with that observed on germination medium containing hygromycin B, as summarized in Table 3.
Capsules are designated A through E.

[4] = tested on: INAc transposition; assay: 5-azacytidine as second inducer of transposition in tobacco seedlings harboring INAc; assay type: in vivo; conditions: 0.1 mM 5-azacytidine combined with 1 mM SA
Text: Other inducers. Given that 5-azacytidine was recently shown to enhance Ac excision in transformed plants (Scortecci et al., Plant Cell Physiol. 38:336-343, 1997), the use of this agent was examined as a second inducer to trigger transposition events in tobacco seedlings harboring INAc.

O=C(O)c1ccccc1O [SA, salicylic acid]
shoots exhibiting medium (++) luciferase activity ([1]; 0.1 mM SA, IA and IP1 calli, two out of nine shoots): 22% | shoots exhibiting high luciferase activity ([1]; 0.1 mM SA, 1 out of 9 shoots): 11% | shoots with luciferase activity (transposition frequency) ([1]; 0.1 mM SA, 33 out of 45 shoots): 73% | induction of PR-1a::TPase expression and transposition events ([1]; 0.1 mM SA, tobacco calli): sufficient to induce the expression of PR-1a::TPase | shoots exhibiting medium (++) or high (+++) luciferase activity ([1]; 1 mM SA, IA and IP1 calli, 13 out of 25 shoots): 52% | shoots exhibiting high luciferase activity ([1]; 1 mM SA, 4 out of 16 shoots): 25% | shoots with luciferase activity (transposition frequency) ([1]; 1 mM SA, 27 out of 70 shoots): 39% | luciferase activity in shoots regenerated from callus ([1]; tobacco callus IC, presence of SA): not detected | luciferase activities of induced shoots versus uninduced shoots ([1]; tobacco line IK): slightly higher | shoots exhibiting luciferase activity out of shoots from SA-treated calli ([1]; tobacco line IM1): 11 out of 24 | shoots exhibiting luciferase activity out of shoots from SA-treated calli ([1]; tobacco line IN1): 11 out of 20 | shoots exhibiting luciferase activity out of shoots from SA-treated calli ([1]; tobacco line IP): 15 out of 17 | shoots exhibiting luciferase activity out of shoots from SA-treated calli ([1]; tobacco line IR1): 12 out of 20 | S: Percentage of Hyg R progeny that were LUC+ ([2]; 1 mM SA, mean of tobacco lines IA, IM, IN, IP): 29% | number of seedlings showing high luciferase activity ([2]; 1 mM SA, of 1021 seedlings): 2 seedlings | S: Percentage of Hyg R progeny that were LUC+ ([2]; 1 mM SA, tobacco line IA): 33% | G: Percentage of Hyg R progeny that exhibited high luciferase activity ([2]; 1 mM SA, tobacco line IA (plant IA7)): 0.4% | S: Percentage of Hyg R progeny that were LUC+ ([2]; 1 mM SA, tobacco line IM): 11% | G: Percentage of Hyg R progeny that exhibited high luciferase activity ([2]; 1 mM SA, tobacco line IM (plant IM4)): 0.4% | G: Percentage of Hyg R progeny that exhibited high luciferase activity ([2]; 1 mM SA, tobacco line IN): 0% | S: Percentage of Hyg R progeny that were LUC+ ([2]; 1 mM SA, tobacco line IN): 9% | G: Percentage of Hyg R progeny that exhibited high luciferase activity ([2]; 1 mM SA, tobacco line IP): 0% | S: Percentage of Hyg R progeny that were LUC+ ([2]; 1 mM SA, tobacco line IP): 62% | HygR seedlings exhibiting high luciferase activity out of seedlings screened ([2]; 5 mM SA, capsule B of plant IP9): 12 out of 202 | S: Percentage of Hyg R progeny that were LUC+ ([2]; 5 mM SA, mean of tobacco lines IA, IM, IN, IP): 47% | number of seedlings showing high luciferase activity ([2]; 5 mM SA, of 1000 seedlings): 7 seedlings | S: Percentage of Hyg R progeny that were LUC+ ([2]; 5 mM SA, tobacco line IA): 60% | G: Percentage of Hyg R progeny that exhibited high luciferase activity ([2]; 5 mM SA, tobacco line IA (plant IA6)): 0.4% | S: Percentage of Hyg R progeny that were LUC+ ([2]; 5 mM SA, tobacco line IM): 45% | G: Percentage of Hyg R progeny that exhibited high luciferase activity ([2]; 5 mM SA, tobacco line IM (plant IM5)): 0.8% | G: Percentage of Hyg R progeny that exhibited high luciferase activity ([2]; 5 mM SA, tobacco line IN): 0% | S: Percentage of Hyg R progeny that were LUC+ ([2]; 5 mM SA, tobacco line IN): 15% | S: Percentage of Hyg R progeny that were LUC+ ([2]; 5 mM SA, tobacco line IP): 68% | G: Percentage of Hyg R progeny that exhibited high luciferase activity ([2]; 5 mM SA, tobacco line IP (plant IP9)): 1.6% | S: Percentage of Hyg R progeny that were LUC+ ([2]; 50 mM SA, mean of tobacco lines IA, IP): 75% | number of seedlings showing high luciferase activity ([2]; 50 mM SA, of 32 seedlings): 1 seedling | S: Percentage of Hyg R progeny that were LUC+ ([2]; 50 mM SA, tobacco line IA): 70% | G: Percentage of Hyg R progeny that exhibited high luciferase activity ([2]; 50 mM SA, tobacco line IA (plant IA5)): 3.7% | G: Percentage of Hyg R progeny that exhibited high luciferase activity ([2]; 50 mM SA, tobacco line IP): 0% | S: Percentage of Hyg R progeny that were LUC+ ([2]; 50 mM SA, tobacco line IP): 100% | effect of SA concentration on frequency of LUC+ seedlings / transposition events in floral tissues ([2]; 1, 5, 50 mM SA): dose-dependent manner | LUC assay: LUC+ seedlings (activity class)/HygR seedlings assayed ([2]; plant 1M5, flowers sprayed 5 mM SA, R1 progeny, capsules A-E in successive rows): 30+152 | seedlings exhibiting luciferase activity ([2]; plants exposed to SA (1, 5 or 50 mM) pooled, 785 out of 2053 seedlings): 38% | number of seedlings showing high luciferase activity ([2]; plants exposed to SA (1, 5 or 50 mM) pooled, of 2053 seedlings): 10 seedlings | frequency of fruiting ([3]; 50 mM SA sprayed on flowering tissues, watered off after 2 hours): marked decrease | germination frequency of R1 progeny ([3]; 50 mM SA, plants IA5 and IP6): low germination frequencies

Nc1ncn([C@@H]2O[C@H](CO)[C@@H](O)[C@H]2O)c(=O)n1 [5-azacytidine]
transposition efficiency versus treatment with SA alone [4]: higher
